{"source": "patent US20190183893A1", "about": "(Guangzhou Dawnlight Biotech Company, priority 2016, published 2019)", "key": {"[1]": {"test_system": "transplanted tumor in mice", "format": "in vivo, mouse", "conditions": "for effect on the antineoplastic activity of low dose sildenafil: 2 mg/kg/day with sildenafil citrate 10 or 20 mg/kg/day; for tumor inhibition rate: 2 weeks; for toxicity / adverse reactions of the mice during the experimental period: citrate"}, "[2]": {"experiment": "sildenafil concentration in the blood after oral intake by an adult patient", "format": "in vivo, human", "conditions": "low oral doses (2-10 mg), estimated", "text": "(§1) The antitneoplastic mechanism of sildenafil at low doses is not yet clear.\n(§2) The antitneoplastic mechanism of low dose sildenafil is not yet clear."}, "[3]": {"test_system": "human hepatocellular carcinoma cell line (HEPG2)", "conditions": "2 μM, citrate; cited from earlier work"}, "cultured tumor cells [4]": {"test_system": "cultured tumor cells", "experiment": "growth of cultured tumor cells", "format": "cell-based", "conditions": "200 μM; citrate", "text": "as §1, §2"}, "[5]": {"test_system": "transplanted tumor derived from liver cancer", "conditions": "mouth-fed, combined with Stivarga (regorafenib); cited from earlier work"}, "[6]": {"test_system": "transplanted tumor of prostate cancer", "conditions": "cited from earlier work"}, "cultured tumor cells [7]": {"test_system": "cultured tumor cells", "experiment": "production of reactive oxygen species (ROS) in cultured tumor cells", "format": "cell-based", "conditions": "300 μM; citrate", "text": "as §1, §2"}, "malignant tumors": {"test_system": "malignant tumors", "experiment": "general statement on low dose sildenafil: tumor growth inhibition in vivo and tolerability", "conditions": "low dose: daily oral 0.04˜0.5 mg per 1 kg, injection 0.04˜0.2 mg per 1 kg or topical less than 1%; for toxicity or side effects: citrate", "text": "It can be used to achieve effective control of tumor growth and improve the treatment of tumors."}}, "note": "Entries after “also recorded” stand apart in the source; their conditions may differ. Counter-ions that a name gives are not always drawn. Like-named read-outs stand apart in the source and are kept apart here.", "data": [{"smiles": "CN(C)CCC(c1ccc(Cl)cc1)c1ccccn1", "note": "(stereo not drawn) [chlorphenamine maleate]", "values": [{"measurement": "effect on the antineoplastic activity of low dose sildenafil", "setting": "[1]", "value": "directly counteract the antineoplastic activity"}, {"measurement": "effect on the antineoplastic activity of low dose sildenafil", "setting": "[1]; listed as chlorphenamine malate", "value": "significantly counteracted the antineoplastic activity"}]}, {"smiles": "CCCc1nn(C)c2c(=O)[nH]c(-c3cc(S(=O)(=O)N4CCN(C)CC4)ccc3OCC)nc12.O=C(O)CC(O)(CC(=O)O)C(=O)O", "note": "[sildenafil, 1-[[3-(6,7-Dihydro-1-methyl-7-oxo-3-propyl-1H-pyrazolo[4,3-d]pyrimidin-5-yl)-4-ethoxyphenyl]sulfonyl]-4-methylpiperazine citrate]", "values": [{"measurement": "drug concentration in the blood", "setting": "[2]", "value": "lower than 0.1 μM"}, {"measurement": "expression of IkB nitro-tyrosine and apoptotic gene ligand Fas-L", "setting": "[3]", "value": "stimulate the expression"}, {"measurement": "effect on the growth of cultured tumor cells", "setting": "cultured tumor cells [4]", "value": "direct inhibitory effect; also recorded: directly inhibited the growth"}, {"measurement": "growth of transplanted tumor derived from liver cancer", "setting": "[5]", "value": "significantly inhibit the growth"}, {"measurement": "antineoplastic effect used alone", "setting": "[6]; alone at normal doses (25-100 mg), versus control group", "value": "not significant"}, {"measurement": "growth of transplanted tumor of prostate cancer", "setting": "[6]; intraperitoneal injection, combined with Adriamycin (Doxorubicin)", "value": "significantly inhibit the growth"}, {"measurement": "tumor inhibition rate", "setting": "[1]; 10 mg/kg/day, combined with chlorphenamine maleate 2 mg/kg/day", "value": 16, "unit": "%"}, {"measurement": "tumor inhibition rate", "setting": "[1]; 20 mg/kg/day, combined with chlorphenamine maleate 2 mg/kg/day", "value": 7, "unit": "%"}, {"measurement": "inhibitory effect on growth of the transplanted tumor", "setting": "[1]; 50 mg/kg/day", "value": "no obvious inhibitory effects"}, {"measurement": "tumor inhibition rate", "setting": "[1]; gavage 10 mg/kg/day, alone", "value": 63, "unit": "%"}, {"measurement": "tumor growth inhibition rate", "setting": "[1]; gavage 10 mg/kg/day, 36 days, dissolved in 25% ethanol", "value": 68, "unit": "%"}, {"measurement": "toxicity / adverse reactions of the mice during the experimental period", "setting": "[1]; gavage 10 mg/kg/day, 36 days, 10 mg/kg/day", "value": "no significant or observable toxicity reactions"}, {"measurement": "toxicity / adverse reactions of the mice during the experimental period", "setting": "[1]; gavage 10 mg/kg/day, 36 days, listed as sildenafil citrate, 10 mg/kg/day", "value": "no significant or observable adverse reactions"}, {"measurement": "tumor inhibition rate", "setting": "[1]; gavage 20 mg/kg/day, alone", "value": 50, "unit": "%"}, {"measurement": "production of reactive oxygen species (ROS)", "setting": "cultured tumor cells [7]", "value": "induced production of reactive oxygen species (ROS); also recorded: induce the production of reactive oxygen species (ROS)"}, {"measurement": "inhibition rate of tumor growth", "setting": "malignant tumors", "value": "more than 50%"}, {"measurement": "toxicity or side effects", "setting": "malignant tumors", "value": "does not produce significant toxicity or side effects"}, {"measurement": "toxicity or side effects", "setting": "malignant tumors; listed as Sildenafil citrate", "value": "without significant toxic side effects"}, {"measurement": "toxicity or side effects", "setting": "malignant tumors; listed as sildenafil citrate", "value": "without significant toxic side effects"}]}]}
